Results on 24 compounds are retold here after patent US7153855B2, “Pyrazolopyridinyl pyrimidine therapeutic compounds” (SmithKline Beecham Corporation, priority 2001, dated 2006).

Structures are written as SMILES.

For the experiment, the system named is HSV-1. Put plainly: HSV-1 infection of Vero 76 cells, viral DNA detected by hybridization capture (chemiluminescence). In kind it is cell-based. The note with it: Human alphaherpesvirus 1; HSV-1 in Vero 76 cells, MOI=0.001, compounds incubated 40–48 hours at 37° C.; read-out: IC50. An excerpt:
In the following example, “MEM” means Minimal Essential Media; “FBS” means Fetal Bovine Serum; “NP40” and “Igepal” are detergents; “MOI” means Multiplicity of Infection; “NaOH” means sodium hydroxide; “MgCl2” means magnesium chloride; “dATP” means deoxyadenosine 5′ triphosphate; “dUTP” means deoxyuridine 5′ triphosphate; “dCTP” means dexoxycytidine 5′ triphosphate; “dGTP” means deoxyguanosine 5′ triphosphate; “GuSCN” means Guanidinium thiocyanate; “EDTA” means ethylenediamine tetraacetic acid; “TE” means Tris-EDTA; “SCC” means sodium chloride/sodium citrate; “APE” means a solution of ammonia acetate, ammonia phosphate, EDTA; “PBS” means phosphate buffered saline; and “HRP” means horseradish peroxidase.
Vero 76 cells were maintained in MEM with Earle's salts, L-glutamine, 8% FBS (Hyclone, A-1111-L) and 100 units/mL Penicillin-100 μg/mL Streptomycin. For assay conditions, FBS was reduced to 2%. Cells are seeded into 96-well tissue culture plates at a density of 5×10^4 cells/well after being incubated for 45 min at 37° C. in the presence of HSV-1 or HSV-2 (MOI=0.001). Test compounds are added to the wells and the plates are incubated at 37° C. for 40–48 hours. Cell lysates are prepared as follows: media was removed and replaced with 150 μL/well 0.2 N NaOH with 1% Igepal CA 630 or NP-40. Plates were incubated up to 14 days at room temperature in a humidified chamber to prevent evaporation.
For the detection probe, a gel-purified, digoxigenin-labeled, 710-bp PCR fragment of the HSV UL-15 sequence was utilized. PCR conditions included 0.5 μM primers, 180 μM dTTP, 20 μM dUTP-digoxigenin (Boehringer Mannheim 1558706), 200 μM each of dATP, dCTP, and dGTP, 1×PCR Buffer II (Perkin Elmer), 2.5 mM MgCl2, 0.025 units/μL of AmpliTaq Gold polymerase (Perkin Elmer), and 5 ng of gel-purified HSV DNA per 100 μL Extension conditions were 10 min at 95° C., followed by 30 cycles of 95° C. for 1 min, 55° C. for 30 sec, and 72° C. for 2 min. The amplification was completed with a 10-min incubation at 72° C. Primers were selected to amplify a 728 bp probe spanning a section of the HSV1 UL15 open reading frame (nucleotides 249–977). Single-stranded transcripts were purified with Promega M13 Wizard kits. The final product was mixed 1:1 with a mixture of 6 M GuSCN, 100 mM EDTA and 200 μg/mL herring sperm DNA and stored at 4° C.
The capture DNA plasmid (HSV UL13 region in pUC) was linearized by cutting with Xba I, denatured for 15 min at 95° C. and diluted immediately into Reacti-Bind DNA Coating Solution (Pierce, 17250, diluted 1:1 with TE buffer, pH 8) at 1 ng/μL 75 μL/well were added to Corning (#3922 or 9690) white 96-well plates and incubated at room temperature for at least 4 hrs before washing twice with 300 μL/well 0.2×SSC/0.05% Tween-20 (SSC/T buffer). The plates were then incubated overnight at room temperature with 150 μL/well 0.2 N NaOH, 1% IGEPAL and 10 μg/mL herring sperm DNA.
Twenty-seven (27) μL of cell lysate was combined with 45 μL of hybridization solution (final concentration: 3M GuSCN, 50 mM EDTA, 100 μg/ml salmon sperm DNA, 5×Denhardt's solution, 0.25×APE, and 5 ng of the digoxigenin-labeled detection probe). APE is 1.5 M NH4-acetate, 0.15 M NH4H2 phosphate, and 5 mM EDTA adjusted to pH 6.0. Mineral oil (50 μL) was added to prevent evaporation. The hybridization plates were incubated at 95° C. for 10 minutes to denature the DNA, then incubated at 42° C. overnight. The wells were washed 6× with 300 μL/well SSC/T buffer then incubated with 75 μL/well anti-digoxigenin-HRP-conjugated antibody (Boehringer Mannheim 1207733, 1:5000 in TE) for 30 min at room temperature. The wells were washed 6× with 300 μL/well with PBS/0.05% Tween-20 before 75 μL/well SuperSignal LBA substrate (Pierce) was added. The plates were incubated at room temperature for 30 minutes and chemiluminescence was measured in a Wallac Victor reader.
The following results were obtained for HSV-1.
Consider `COc1ccc(-c2nn3c(NCCCCO)cccc3c2-c2ccnc(NC3CCCC3)n2)cc1` [Example 90, 4-{[3-[2-(Cyclopentylamino)pyrimidin-4-yl]-2-(4-methoxyphenyl)-pyrazolo[1,5-a]pyridin-7-yl]amino}butan-1-ol], for which the IC50 was 200 nM.
The result for `Nc1nccc(-c2c(-c3cccc(Br)c3)nn3c(N4CCCC4)cccc23)n1` [Example 28, 4-[2-(3-Bromophenyl)-7-(1-pyrrolidinyl)pyrazolo[1,5-a]pyridin-3-yl]-2-pyrimidinamine] reads 5000 nM; that for `Oc1cccc(-c2nn3c(NC4CCCC4)cccc3c2-c2ccnc(NC3CCCC3)n2)c1` [Example 54, 3-{7-(Cyclopentylamino)-3-[2-(cyclopentylamino)-4-pyrimidinyl]pyrazolo[1,5-a]pyridin-2-yl}phenol], 650 nM; that for `Clc1cccc(-c2nn3c(NC4CCCC4)cccc3c2-c2ccnc(NC3CC3)n2)c1` [Example 100, 2-(3-Chlorophenyl)-N-cyclopentyl-3-[2-(cyclopropylamino)-4-pyrimidinyl]pyrazolo[1,5-a]pyridin-7-amine], 300 nM.
With `C=CCOc1ccc(-c2nn3c(NC4CCCC4)cccc3c2-c2ccnc(NC3CC3)n2)cc1` [Example 71, 2-[4-(Allyloxy)phenyl]-N-cyclopentyl-3-[2-(cyclopropylamino)-4-pyrimidinyl]pyrazolo[1,5-a]pyridin-7-amine], the IC50 was found to be 500 nM.
The result for `COc1ccc(-c2nn3c(N4CCCC4)cccc3c2-c2ccnc(N)n2)cc1` [Example 3, 4-[2-(4-Methoxyphenyl)-7-(1-pyrrolidinyl)pyrazolo[1,5-a]pyridin-3-yl]-2-pyrimidinamine] reads 5000 nM; that for `COc1ccc(-c2nn3c(NC4CCCC4)cccc3c2-c2ccnc(NC3CCCC3)n2)cc1Br` [Example 42, N-{4-[2-(3-Bromo-4-methoxyphenyl)-7-(cyclopentylamino)pyrazolo[1,5-a]pyridin-3-yl]-2-pyrimidinyl}-N-cyclopentylamine], 1400 nM.
For `CCCCNc1nccc(-c2c(-c3ccc(NCc4ccccc4)cc3)nn3c(NCCCC)cccc23)n1` [Example 45, 2-[4-(Benzylamino)phenyl]-N-butyl-3-[2-(butylamino)-4-pyrimidinyl]-pyrazolo[1,5-a]pyridin-7-amine] the value was 22000 nM; for `COc1ccc(-c2nn3c(N4CCOCC4)cccc3c2-c2ccnc(NC3CCCC3)n2)cc1` [Example 61, N-Cyclopentyl-4-[2-(4-methoxyphenyl)-7-(4-morpholinyl)pyrazolo[1,5-a]pyridin-3-yl]-2-pyrimidinamine], 200 nM; for `COc1ccc(-c2nn3c(NCCCCN)cccc3c2-c2ccnc(NC3CCCC3)n2)cc1` [Example 81, N-[3-[2-(Cyclopentylamino)pyrimidin-4-yl]-2-(4-methoxyphenyl)-pyrazolo[1,5-a]pyridin-7-yl]butane-1,4-diamine], 600 nM.
For `CCCCNc1nccc(-c2c(-c3ccc(N4CCOCC4)cc3)nn3c(NCCCC)cccc23)n1` [Example 75, N-Butyl-3-[2-(butylamino)pyrimidin-4-yl]-2-(4-morpholin-4-ylphenyl)pyrazolo[1,5-a]pyridin-7-amine] the value was 27000 nM.
In the case of `c1cc(-c2ccncc2)cc(-c2nn3c(NC4CCCC4)cccc3c2-c2ccnc(NC3CCCC3)n2)c1` [Example 31, N-Cyclopentyl-3-[2-(cyclopentylamino)-4-pyrimidinyl]-2-[3-(4-pyridinyl)phenyl]pyrazolo[1,5-a]pyridin-7-amine], the half-maximal inhibitory concentration (IC50) was 2000 nM.
`COc1ccc(-c2nn3c(NCCN4CCOCC4)cccc3c2-c2ccnc(NC3CCCC3)n2)cc1` [Example 59, 3-[2-(Cyclopentylamino)-4-pyrimidinyl]-2-(4-methoxyphenyl)-N-[2-(4-morpholinyl)ethyl]pyrazolo[1,5-a]pyridin-7-amine]: the IC50 was found to be 400 nM.
For `COc1ccc(-c2nn3c(N)cccc3c2-c2ccnc(NC3CCCC3)n2)cc1` [Example 83, 3-[2-(Cyclopentylamino)pyrimidin-4-yl]-2-(4-methoxyphenyl)pyrazolo-[1,5-a]pyridin-7-amine] the value was 700 nM.
For `COCCNc1cccc2c(-c3ccnc(NC4CCCC4)n3)c(-c3ccc(OC)cc3)nn12` [Example 62, 3-[2-(Cyclopentylamino)-4-pyrimidinyl]-N-(2-methoxyethyl)-2-(4-methoxyphenyl)pyrazolo[1,5-a]pyridin-7-amine] the value was 100 nM; for `COc1cccc(-c2nn3c(N(C)C)cccc3c2-c2ccnc(NC3CCCC3)n2)c1` [Example 53, 3-[2-(Cyclopentylamino)-4-pyrimidinyl]-2-(3-methoxyphenyl)-N,N-dimethylpyrazolo[1,5-a]pyridin-7-amine], 1100 nM; for `CS(=O)(=O)Nc1cccc(-c2nn3c(NC4CCCC4)cccc3c2-c2ccnc(NC3CCCC3)n2)c1` [Example 36, N-(3-{7-(Cyclopentylamino)-3-[2-(cyclopentylamino)-4-pyrimidinyl]-pyrazolo[1,5-a]pyridin-2-yl}phenyl)methanesulfonamide], 3000 nM.
As for `CCCCNc1nccc(-c2c(-c3ccc(Nc4ccccc4)cc3)nn3c(NCCCC)cccc23)n1` [Example 19, 2-(4-Anilinophenyl)-N-butyl-3-[2-(butylamino)-4-pyrimidinyl]pyrazolo[1,5-a]pyridin-7-amine], the IC50 was determined as 500 nM.
For `CCCCNc1nccc(-c2c(-c3ccc(N(C)C)cc3)nn3c(NCCCC)cccc23)n1` [Example 23, N-Butyl-3-[2-(butylamino)-4-pyrimidinyl]-2-[4-(dimethylamino)phenyl]-pyrazolo[1,5-a]pyridin-7-amine], the half-maximal inhibitory concentration (IC50) turned out to be 2000 nM.
The result for `c1cc(NC2CC2)n2nc(-c3ccc(OCC4CC4)cc3)c(-c3ccnc(NC4CCCC4)n3)c2c1` [Example 70, 3-[2-(Cyclopentylamino)-4-pyrimidinyl]-N-cyclopropyl-2-[4-(cyclopropylmethoxy)phenyl]pyrazolo[1,5-a]pyridin-7-amine] reads 600 nM.
The result for `c1ccc(-c2cccc(-c3nn4c(N5CCCC5)cccc4c3-c3ccnc(NC4CCCC4)n3)c2)cc1` [Example 30, 4-[2-[1,1′-Biphenyl]-3-yl-7-(1-pyrrolidinyl)pyrazolo[1,5-a]pyridin-3-yl]-N-cyclopentyl-2-pyrimidinamine] reads 800 nM.
Turning to `COc1ccc(-c2nn3c(NCCCCNS(C)(=O)=O)cccc3c2-c2ccnc(NC3CCCC3)n2)cc1` [Example 86, N-(4-{[3-[2-(Cyclopentylamino)pyrimidin-4-yl]-2-(4-methoxyphenyl)pyrazolo[1,5-a]pyridin-7-yl]amino}butyl)methanesulfonamide], the IC50 was 600 nM.
The result for `C=C(C)c1ccc(-c2nn3c(NCCCC)cccc3c2-c2ccnc(NCCCC)n2)cc1` [Example 18, N-Butyl-3-[2-(butylamino)-4-pyrimidinyl]-2-(4-isopropenylphenyl)-pyrazolo[1,5-a]pyridin-7-amine] reads 9000 nM.
For `Brc1cccc(-c2nn3c(NC4CCCC4)cccc3c2-c2ccnc(NC3CCCC3)n2)c1` [Example 25, 2-(3-Bromophenyl)-N-cyclopentyl-3-[2-(cyclopentylamino)-4-pyrimidinyl]pyrazolo[1,5-a]pyridin-7-amine] the value was 200 nM.

The term IC50 denotes the concentration at which inhibition is half-maximal.
